In patent publication US7056491B2, “Monoterpenes and sesquiterpenes as chemotherapeutic and radiation sensitizers and immunomodulators” (Wisconsin Alumni Research Foundation, priority 2000, dated 2006):

Columns and labels:
T98G cells = experiment: Clonogenic survival, POH pretreatment then doxorubicin, T98G; type: cell-based, human; conditions: T98G
Procedure: Referring to FIG. 29, subconfluent cells of T98G cells were treated with varying concentrations of perillyl alcohol (0.1 mM–0.5 mM) for 48 hours and subsequently treated with the indicated dose of doxorubicin (0.01 uM–0.1 uM) for 48 hours. At the end of the treatment, POH-pretreated and untreated cells in the presence and absence of doxorubicin, were harvested, washed with PBS, plated at the desired cell number and incubated for two weeks. The colonies were stained with crystal violet and quantitated. Survival was determined as the ratio of plating efficiencies for each irradiated group to that of the untreated control. […] Doxorubicin at concentrations over 0.1 uM appeared to be toxic to the cells.

rat mammary carcinoma = conditions: limonene, Haag et al.; cited from earlier work
[1] = rats, 10% limonene diet for 10 weeks; cited from earlier work
[2] = system: 21–26 kD proteins, including small GTP-binding proteins; conditions: dose dependent, distal to HMG-CoA reductase; cited from earlier work

Compound: COc1cccc2c1C(=O)c1c(O)c3c(c(O)c1C2=O)C[C@@](O)(C(=O)CO)C[C@@H]3O[C@H]1C[C@H](N)[C@H](O)[C@H](C)O1 [Doxorubicin, reference compound]
- concentrations toxic to the cells (T98G cells): over 0.1 uM

Compound: C=C(C)[C@H]1CC=C(C)CC1 [limonene]
- effect on advanced rat mammary carcinomas (rat mammary carcinoma): regression of advanced rat mammary carcinomas
- plasma levels of terpene metabolites [1]: 270 µM
- isoprenylation of 21–26 kD proteins [2]: inhibit isoprenylation
